In US7586008B2, “Propofol analogs, process for their preparation, and methods of use” (Abraxis Bioscience, Inc., priority 2003, dated 2009):
“And” between values parts separate entries of the source, which are not always exact repeats. Identical values can stand only once. Like-named read-outs stand apart in the source and are kept apart here.

Columns and labels:
GABAA Cl channel = assay: Competitive binding assay, GABAA Cl channel (3H-TBOB), bovine hippocampus; details: for IC50: read-out: GABAA CI Channel Binding (IC50); for Percent Inhibition, chloride channel: propofol at 10^-4 M
Experimental: (§1) The propofol binding site on GABAA was defined using a series of competitive binding assays. Frozen bovine hippocampus was thawed and homogenized in 40 volumes of ice-cold 0.32 M sucrose. The suspension was centrifuged at 1000×g for 10 minutes at 4° C. The pellet was washed twice in assay buffer and reacted with radioactive ligand in presence or absence of propofol at 10−4 M final concentration. The amount of radioactivity remained on the Whatman filter following filtration of the reaction mix and two washes with assay buffer was determined using a liquid scintillation counter. Inhibition of radioactive ligand binding by propofol represents the competitive binding of propofol to the same site as the radioactive ligand. GABAA agonist site, GABAA α-1 site, GABAA α-5 site, GABAA α-6 site, and GABAA Cl channel were assayed using ^3H-GABA, ^3H-Flunitrazepam, ^3H-RY80, ^3H-Ro 15-4513, and ^3H-TBOB.
(§2) To determine the binding constant (KD) of propofol and its analogs for GABAA Cl channel, binding was determined as in Example 25 in presence of increasing concentration of propofol and the KD determined graphically using the Hill plots. In vivo hypnotic activity was determined as follows. Drugs solubilized in DMSO were administered to rats by tail vein injection (N=5 rats per group). A dose level of 28 μmol/kg (5 mg/kg for propofol) was used to compensate for differences in molecular weight of the analogs. Anesthetic activity in vivo was determined as time to recovery of righting reflex following administration of the compounds.

rats [1] = assay: In vivo hypnotic/anesthetic activity, time to recovery of righting reflex; set-up: species or system rat; details: for Anesthesia Activity (Time to awakening, min): rats, tail vein injection in DMSO, 28 μmol/kg (5 mg/kg for propofol); for Time to Awakening (h) [mean ± SD, (N)] / time rats were asleep at LD10: rat
Experimental: as §2
(§3) Dose escalation experiment was performed in rat in order to compare the toxicity and the pharmacodynamic of CT8 against propofol. Drugs solubilized in DMSO were administered to rats (5 rats per group). Anesthetic activity in vivo was determined as time to recovery of righting reflex. Mortality was also monitored and the LD50 curves for propofol and CT8 constructed. In order to adjust for the differences in molecular weight between the two compounds, μmol/kg dose was used.

rats [2] = assay: Dose escalation toxicity, mortality and LD curves; details: rat; for calculated LD10: drugs in DMSO
Experimental: as §3

[3] = rat; for V1 / V2: single i.v. bolus in DMSO, propofol 5 mg/kg, CT8 10 mg/kg
in vivo = details: male, Sprague-Dawley, rat, whole blood, iv
GABAA agonist site = details: propofol at 10^-4 M, 3H-GABA
Experimental: as §1

GABAA alpha 2 site = details: propofol at 10^-4 M
Experimental: as §1

GABAA α-1 site = details: propofol at 10^-4 M, 3H-Flunitrazepam
Experimental: as §1

GABAA α-6 site = details: propofol at 10^-4 M, 3H-Ro 15-4513
Experimental: as §1

[4] = increasing concentration, Hill plots

## CC(C)c1cc(C(=O)c2cccc(C(F)(F)F)c2)cc(C(C)C)c1O [CY96, (3-(trifluoromethyl)phenyl)-(4-hydroxy-3,5-diisopropylphenyl)methanone]
GABAA Cl channel; [4]
  IC50: 3.91 µM
Rats [1]
  Anesthesia Activity (Time to awakening, min): 5.5 ± 2.4, N = 5 min

## CC(C)c1cc(C(=O)c2ccc(I)cc2)cc(C(C)C)c1O [CY155, (4-hydroxy-3,5-diisopropylphenyl)-(4-iodophenyl)methanone]
GABAA Cl channel; [4]
  IC50: 0.57 µM

## CC(C)c1cc(C(=O)c2cc(F)cc(C(F)(F)F)c2)cc(C(C)C)c1O [CY97, (3-fluoro-5-(trifluoromethyl)phenyl)-(4-hydroxy-3,5-diisopropylphenyl)methanone]
GABAA Cl channel; [4]
  IC50: 4.67 µM
Rats [1]
  Anesthesia Activity (Time to awakening, min): 1.9 ± 1.0, N = 5 min

## CON=C(c1ccc(C(F)(F)F)cc1)c1cc(C(C)C)c(O)c(C(C)C)c1 [CY127, 4-((4-(trifluoromethyl)phenyl)-(methoxyimino)methyl)-2,6-diisopropylphenol]
Rats [1]
  Anesthesia Activity (Time to awakening, min): 8.8 ± 5.8, N = 5 min

## CC(C)c1cc(Cc2ccc(C(F)(F)F)cc2)cc(C(C)C)c1O [CY130, 4-(4-(trifluoromethyl)benzyl)-2,6-diisopropylphenol]
Rats [1]
  Anesthesia Activity (Time to awakening, min): 8.2 ± 3.0, N = 5 min

## CC(C)c1cc(C(O)c2ccc(C(F)(F)F)cc2)cc(C(C)C)c1O (stereo not drawn) [CY135, 4-((4-(trifluoromethyl)phenyl)-(hydroxy)methyl)-2,6-diisopropylphenol]
Rats [1]
  Anesthesia Activity (Time to awakening, min): 15.0 ± 11.4, N = 5 min

## CC(C)c1cc(C(=O)c2ccc(S(C)(=O)=O)cc2)cc(C(C)C)c1O [CY177]
Rats [1]
  Anesthesia Activity (Time to awakening, min): 4.6 ± 1.5, N = 5 min

## CC(C)c1cc(C(=O)c2ccc(C(F)(F)F)nc2)cc(C(C)C)c1O [CY176, (6-(trifluoromethyl)pyridin-3-yl)-(4-hydroxy-3,5-diisopropylphenyl)methanone]
Rats [1]
  Anesthesia Activity (Time to awakening, min): 14.9 + 21.1, N = 2 min

## CC(C)Cc1ccc(C(=O)c2cc(C(C)C)c(O)c(C(C)C)c2)cc1 [CY122, (4-hydroxy-3,5-diisopropylphenyl)-(4-isobutylphenyl)methanone]
Rats [1]
  Anesthesia Activity (Time to awakening, min): 7.6 ± 1.8, N = 5 min

## CC(C)c1cc(C(=O)c2ccc(Br)cc2)cc(C(C)C)c1O [CY178, (4-bromophenyl)-(4-hydroxy-3,5-diisopropylphenyl)methanone]
Rats [1]
  Anesthesia Activity (Time to awakening, min): 66.6 ± 17.9, N = 5 min

## CC(C)c1cc(C(=O)c2ccc(C(C)(C)C)cc2)cc(C(C)C)c1O [CY120, (4-tert-butylphenyl)-(4-hydroxy-3,5-diisopropylphenyl)methanone]
Rats [1]
  Anesthesia Activity (Time to awakening, min): 15.5 ± 9.2, N = 2 min

## CC(C)c1cc(C(=O)c2ccc(Cl)cc2)cc(C(C)C)c1O [CY182, (4-chlorophenyl)-(4-hydroxy-3,5-diisopropylphenyl)methanone]
Rats [1]
  Anesthesia Activity (Time to awakening, min): 67.7 ± 5.1, N = 3 min

## CC(C)c1cc(C(=O)c2ccc(C#N)cc2)cc(C(C)C)c1O [CY175, (4-cyanophenyl)-(4-hydroxy-3,5-diisopropylphenyl)methanone]
Rats [1]
  Anesthesia Activity (Time to awakening, min): 43.4 ± 23.5, N = 2 min

## CC(C)c1cc(C(=O)c2ccc(C(F)(F)F)cc2)cc(C(C)C)c1O [CT8, (4-(trifluoromethyl)phenyl)-(4-hydroxy-3,5-diisopropylphenyl)methanone]
GABAA Cl channel; [4]
  IC50: 0.57 µM
Rats [1]; dose 1.43 μmol/kg
  Time to Awakening (h) [mean ± SD, (N)]: 0.000 ± 0.000, (5) h
Rats [1]; dose 2.86 μmol/kg
  Time to Awakening (h) [mean ± SD, (N)]: 0.000 ± 0.000, (5) h
Rats [1]; dose 14.28 μmol/kg
  Time to Awakening (h) [mean ± SD, (N)]: 0.748 ± 0.094, (5) h
Rats [1]; dose 28.10 μmol/kg
  Time to Awakening (h) [mean ± SD, (N)]: 1.543 ± 0.085, (4) h
Rats [1]; dose 28.56 μmol/kg
  Time to Awakening (h) [mean ± SD, (N)]: 1.728 ± 0.154 (5) h
Rats [1]; dose 57.12 μmol/kg
  Time to Awakening (h) [mean ± SD, (N)]: 3.553 ± 0.166, (3) h
Rats [1]
  time rats were asleep at LD10: 1.73 h
Rats [2]; dose 1.427959 μmol/kg
  Mortality (%): 0%
Rats [2]; dose 2.855919 μmol/kg
  Mortality (%): 0%
Rats [2]; dose 14.2796 μmol/kg
  Mortality (%): 0%
Rats [2]; dose 28.55919 μmol/kg
  Mortality (%): 10%
Rats [2]; dose 57.11838 μmol/kg
  Mortality (%): 40%
Rats [2]; dose 114.2368 μmol/kg
  Mortality (%): 100%
Rats [2]; dose 228.4735 μmol/kg
  Mortality (%): 100%
Rats [2]
  calculated LD10: 29 µmol/kg
[3]; i.v. bolus, ratio to propofol
  AUC, fold higher than that of propofol: 317 ×
  CL, fold slower than propofol: 146 ×
  V1, fold smaller than that of propofol: 375 ×
  V2, fold smaller than that of propofol: 11 ×
  Vss, fold smaller than that of propofol: 14 ×
[3]
  V1: 0.04 L/kg
  V2: 5.2 L/kg
In vivo
  Vd: 5.3 L/kg
  clearance: 1.33 mL/min/kg

## CC(C)c1cc(C(=O)c2ccc(C(F)(F)F)c(F)c2)cc(C(C)C)c1O [CY93, (3-fluoro-4-(trifluoromethyl)phenyl)-(4-hydroxy-3,5-diisopropylphenyl)methanone]
GABAA Cl channel; [4]
  IC50: 1.27 µM
Rats [1]
  Anesthesia Activity (Time to awakening, min): 52.4 ± 37.7, N = 3 min

## CC(C)c1cc(C(=O)c2ccc([N+](=O)[O-])cc2)cc(C(C)C)c1O [CY61, (4-hydroxy-3,5-diisopropylphenyl)-(4-nitrophenyl)methanone]
GABAA Cl channel; [4]
  IC50: 0.5 µM
Rats [1]
  Anesthesia Activity (Time to awakening, min): 57.2 ± 0.7, N = 5 min

## COc1ccc(C(=O)c2cc(C(C)C)c(O)c(C(C)C)c2)cc1 [CY157, (4-hydroxy-3,5-diisopropylphenyl)-(4-methoxyphenyl)methanone]
Rats [1]
  Anesthesia Activity (Time to awakening, min): 0.0 + 0.0, N = 5 min

## CC(C)c1cccc(C(C)C)c1O [Propofol, 2,6-diisopropylphenol]
GABAA agonist site
  Percent Inhibition, agonist site: No significant inhibition
GABAA agonist site; listed as propofol
  Percent Inhibition, agonist site: 12.48%
GABAA alpha 2 site
  Percent Inhibition, alpha 2 site: No significant inhibition
GABAA alpha 2 site; listed as propofol
  Percent Inhibition, alpha 2 site: −15.58%
GABAA α-1 site
  Percent Inhibition, alpha 1 site: No significant inhibition
GABAA α-1 site; listed as propofol
  Percent Inhibition, alpha 1 site: −14.31%
GABAA α-6 site
  Percent Inhibition, alpha 6 site: No significant inhibition
GABAA α-6 site; listed as propofol
  Percent Inhibition, alpha 6 site: −0.89%
GABAA Cl channel; [4]
  IC50: 4.86 µM
GABAA Cl channel
  Percent Inhibition, chloride channel: only inhibited the binding of TBOB
GABAA Cl channel; listed as propofol
  Percent Inhibition, chloride channel: 117.52%
Rats [1]; dose 5.61 μmol/kg
  Time to Awakening (h) [mean ± SD, (N)]: 0.000 ± 0.000, (5) h
Rats [1]; dose 28.05 μmol/kg
  Time to Awakening (h) [mean ± SD, (N)]: 0.346 ± 0.149, (4) h and 0.350 ± 0.228 (5) h
Rats [1]; dose 56.09 μmol/kg
  Time to Awakening (h) [mean ± SD, (N)]: 0.600 ± 0.000, (1) h
Rats [1]
  time rats were asleep at LD10: 0.35 h
Rats [2]; dose 5.609469 μmol/kg
  Mortality (%): 0%
Rats [2]; dose 28.04734 μmol/kg
  Mortality (%): 10%
Rats [2]; dose 56.09469 μmol/kg
  Mortality (%): 80%
Rats [2]; dose 112.1894 μmol/kg
  Mortality (%): 100%
Rats [2]
  calculated LD10: 28 µmol/kg
[3]
  V1: 15.0 L/kg
  V2: 58.0 L/kg
In vivo
  Vd: 73 L/kg
  clearance: 195 mL/min/kg

## CC(C)c1cc(C(=O)c2ccc(F)cc2)cc(C(C)C)c1O [CT7, (4-fluorophenyl)-(4-hydroxy-3,5-diisopropylphenyl)methanone]
Rats [1]
  Anesthesia Activity (Time to awakening, min): 34.2 ± 1.2, N = 2 min

## CC(C)c1cc(C(=O)c2ccc3ccccc3c2)cc(C(C)C)c1O [CY99, (4-hydroxy-3,5-diisopropylphenyl)-(naphthalen-2-yl)methanone]
GABAA Cl channel; [4]
  GABAA CI Channel Binding (IC50, μM): No activity
Rats [1]
  Anesthesia Activity (Time to awakening, min): 5.5 ± 3.4, N = 5 min

## CCCc1ccc(C(=O)c2cc(C(C)C)c(O)c(C(C)C)c2)cc1 [CY181, (4-hydroxy-3,5-diisopropylphenyl)-(4-propylphenyl)methanone]
Rats [1]
  Anesthesia Activity (Time to awakening, min): 9.0 + 20.1, N = 5 min

## CC(C)c1cc(C(=O)c2cc(C(F)(F)F)cc(C(F)(F)F)c2)cc(C(C)C)c1O [CY104, (3,5-bis(trifluoromethyl)phenyl)-(4-hydroxy-3,5-diisopropylphenyl)methanone]
GABAA Cl channel; [4]
  IC50: 21.3 µM
Rats [1]
  Anesthesia Activity (Time to awakening, min): 6.4 ± 2.8, N = 4 min
